For data set [1] the following is noted: AD clinical trials (refs 27, 28, 34, 35); cited from earlier work.
The subject of data set [2] is LPS-challenged mice. In words: Survival rescue after lethal dose of LPS. Type of data set: in vivo, C57BL/6 mice.
The test system of data set [3] is LPS-challenged mice. The following applies: mice without LPS treatment, MK-8931 50 mg/kg oral.
The test system of data set [4] is LPS-challenged mice. Briefly: H&E histology, tissue injury score after LPS. The following applies: LPS only or LPS plus MK-8931.
Where [5] appears, read: MK-8931 plus LPS versus LPS only.

Structures are written as SMILES.

Turning to `C[C@@]1(c2nc(NC(=O)c3ncc(C(F)(F)F)cc3Cl)ccc2F)CO[C@@](C)(C(F)(F)F)C(N)=N1` [CNP50], the tolerability in patients entry in data set [1] is recorded as “well-tolerated”.
For `CC#Cc1cncc(-c2ccc3c(c2)C2(N=C(C)C(N)=N2)C2(CCC(OC)CC2)C3)c1` (stereo not drawn) [AZD3293], the tolerability in patients result in data set [1] is given as “well-tolerated”.
For the molecule `CN1C(N)=N[C@](C)(c2cc(NC(=O)c3ccc(F)cn3)ccc2F)CS1(=O)=O` [MK-8931], in data set [2] (LPS 15 mg/kg i.p. plus MK-8931 50 mg/kg oral, 3 of 14 mice, between 20 to 96 hours after LPS), the mice died stood at 21.4%. In data set [2] (LPS 15 mg/kg i.p. plus MK-8931 50 mg/kg oral, 11 of the 14 mice), the mice survived was 78.6%. Besides, in data set [2] (setting [5]), the increase of survival came to 367% and the “reduction of mortality rate” value came to 3.7 fold. Besides, in data set [3], the “plasma levels of cytokines/chemokines, MK-8931 alone” value is listed as “did not affect”. Also, the “tissue injury in spleen and liver” value in data set [4] is “No significant tissue injury”. The tolerability in patients result in data set [1] is “safe oral drug and well-tolerated”.

(Values after US20230302009A1, “BACE1 INHIBITOR TREATMENT FOR S[…] STORM” (priority 2020, published 2023).)
